Measurements taken from publication PMC11755785 (Langmuir, 2025).
Where two headings read alike, the source gives them in different places.

Legend:
[1] = Flask-shaking 1-octanol/water partition, log D–pH profile fitted to Avdeef's diagram; format: physicochemical; conditions: modified Britton–Robinson buffers pH 5–11.5, 298 K
Experimental: The aqueous-phase solvents were prepared by mixing 25 mM KH2PO4 and 25 mM Na2HPO4 solutions in 25 mM Pi buffer. The pH was adjusted before fixing the prescribed concentrations of the acid components of the buffer. The JP1 and JP2 buffer solutions were 10 mM sodium citrate/HCl buffer (pH 1.2) and Pi buffer (pH 6.8), which were prepared in compliance with the description for solution media for the dissolution test in Japanese Pharmacopeia (JP)-implemented international harmonization. The modified Britton–Robinson universal pH buffer comprised 28.6 mM KH2PO4, 28.6 mM HBO2, and 28.6 mM NaCl, titrated with 1 M NaOH (here, modified means elimination of barbital to cancel its interaction with organic solutes). For the partition equilibrium examination, the aqueous saturated 1-octanol phase comprised 1-octanol, which was flooded with a modified Britton–Robinson buffer adjusted to the appropriate pH in advance.
The hydrophobic drug dissolved in the aqueous saturated 1-octanol phase was mixed with an isochoric solution of the modified Britton–Robinson buffer (pH 5–11.5), saturated with 1-octanol. Thereafter, the samples in the screw-capped vials were machine-shaken at 298 K in a thermostatic chamber for 60 min and subsequently kept stationary for 60 min; the procedure corresponds to the conventional “flask-shaking” method.[41]−[43] After settling, the pH in the aqueous phase was confirmed using pH indicator strips (MColoHast pH 0–6.0, MQuant pH 7.5–14, and MQuant pH 0–14, Merck, Germany) to be that of the adjusted pH value. Aliquots (10 μL) from the 1-octanol and the aqueous layers were injected into the HPLC instrument. The 1-octanol/water partition coefficients, log P (equivalent to log KOW), and acid dissociation constants, pKa, were optimized using curve fitting, approximated by eq 1 [drawing 1] 1 which is Avdeef’s diagram[44] derived from the Henderson–Hasselbalch expression for the equilibrium between the protonated and deprotonated species. The curve-fitting procedures used the solver module of Microsoft Excel 2016 with the implemented GRG nonlinear option. Approximate curves corresponding to these optimized parameters were drawn, and the pKa and log P values for AVB, OXB, and CUR were obtained.

[2] = Phase-solubility diagram with β-CD
Experimental: The solutions were mechanically shaken at 298 K in a thermostatic chamber, and the supernatant was sampled and filtered after passage for appropriate periods. The concentration of the drug in the supernatant was determined using HPLC.
The phase-solubility diagram consists of the equilibrium concentration of the guest drug as the ordinate and the total concentration of the host CD as the abscissa.[45] If a straight line and parabolic curve can be approximated on the phase-solubility diagram, then, the curves are classified as AL- and AP-types in the Higuchi and Connors catalogs, respectively.[45],[46]
Multiple regression analysis of the measured data set to the total concentration of the host ([CD]) and its squares ([CD]^2) using eq 3 can be used to obtain the stability constants for a combination of the equimolar complex K1:1 and double-host associating complex K1:2.[45],[46] [drawing 3] 3 This is the sum of the dissociated (free) and associated (complexed) drug concentrations. Although the Benesi–Hildebrand equation with the square of the host concentration has been used for parabolic correlations, its validity remains unclear.
This curve is classified as the AN-type on the Higuchi and Connors catalog.[45]−[48] The curve is described by eq 4′ according to the Langmuir adsorption isotherm model.[47]−[51] To process with the linear regression analysis of ordinate ([CD]/γ) referred to abscissa ([CD]), the Hanes–Woolf expression in eq 4′ may be used [drawing 4] 4 [drawing 5] 4′ where n indicates the asymptotic concentration of the drug associated with CD (saturation, maximal γ) and K is equivalent to the drug/CD complex stability constant. […] The stoichiometry of a complex of drugs with CD is difficult to determine; the prevailing opinion is that more than one guest molecule incorporates a host molecule and that hydration or ionization of the guest regulates the solubility of the complex.[46]
Szejtili[46] stated that, in rare cases, the ascending region at lower host concentrations is followed by a plateau region, similar to that of the AN-type saturation curve. Simultaneously, it terminates at any host concentration threshold. It is named the BS-type in the Higuchi and Connors catalog,[45]−[48] and for concentrations higher than the threshold, the guest concentration decreases along a hyperbola, probably according to the solubility product KSP.[49] To analyze this type of pattern, a hypothesis that is yet to be discussed is required.[52] […] At the threshold concentration of CD, the scale of the aggregated dispersoids transcends an upper limit, and the aggregation induces subsequent sedimentation.[52] Thus, the solubility product may be considered a property of poorly soluble aggregated dispersoids containing a tolerable amount of the drug and an excess amount of CD.

[3] = Phase-solubility diagram with HP-β-CD; format: physicochemical; set-up: stability constant K1:2 with HP-β-CD: unit not given here
[4] = UVA1 (365 nm) photodegradation in aqueous buffer, UV–vis spectra / RP-HPLC; format: physicochemical; conditions: for disruption on exposure to UV light: 4 h; for UVA1 photodegradation (spectral change): 50 μM, aqueous
Experimental: (§1) The samples were obtained after passage for appropriate periods and measured using an UV–vis spectrophotometer in the maximum range between 200 and 700 nm (arranged on demand) from long wavelengths toward short wavelengths to avoid unnecessary irradiation of the UV region. To obtain HPLC chromatograms, aliquots of the UV-irradiated solution were obtained by pipetting at 0, 1/5, 1/2, 1, 2, 3, 4, 24, 48, 72, 96, 120, 144, and 168 h for AVB and at 0, 1, 2, 3, and 18 h for CUR. To obtain those of OXB in the absence or presence of β-CD, the invariable samples were certified at 0 and 48 h. For the samples in acetonitrile aqueous solution or methanol aqueous solution at a ratio of 7:3, the time evolution of the UVA1 irradiated solution was examined under similar conditions.

[5] = Photostability under solar light, UV–vis spectra; format: physicochemical; conditions: solar light 4 h, 50 μM
Experimental: The photostability of the drug under solar light was evaluated using UV–vis spectral measurements. Sample solutions were exposed to solar light outdoors at a sunny location on a latitude of 35.92° N and a longitude of 139.91° E for 4 h, from 12:00 to 16:00, at an average temperature of 284.55 K.

[6] = UVA1 (365 nm) photodegradation in isochoric acetonitrile/water solvent; format: physicochemical
Experimental: as §1

[7] = cited from earlier work
[8] = cited from earlier work; remark: listed apart in the source
[9] = cited from earlier work; remark: listed apart in the source
[10] = set-up: method as in Yan et al. 95; conditions: ref Yan et al. 95; cited from earlier work
[11] = set-up: method as in PMID 34606770; conditions: Chart 1; cited from earlier work
[12] = 25 mM Pi/NaOH buffer pH 6.8, 298 K, Figure 2
[13] = 25 mM Pi/NaOH buffer pH 6.8, 298 K, Figure 2, in M-1 (unit assumed)

Question: With curcumin as the compound, how does the “acid dissociation constant, pKa” value ([1]; from log D–pH curve fitting) read?
Answer: 8.81

Question: And the “1-octanol/water partition coefficient, log P” value ([1]; neutral form, curve fitting)?
Answer: 2.65

Question: What about the “stability constant K1:2 with β-CD” value [2, 12] of the same compound?
Answer: 74.41

Question: What about the “stability constant K1:1 with β-CD” value [2, 13] of the same compound?
Answer: 771.7

Question: What about the “phase-solubility diagram type (Higuchi and Connors) with β-CD” value ([2]; pH 6.8) of the same compound?
Answer: AP-type

Question: And the “stability constant K1:1 with β-CD” value ([2]; pH 6.8)?
Answer: 771.7 M^–1

Question: What about the “stability constant K1:2 with HP-β-CD” value [3, 12] of the same compound?
Answer: 2.302

Question: And the “stability constant K1:1 with HP-β-CD” value [3, 13]?
Answer: 6619

Question: And the “phase-solubility diagram type (Higuchi and Connors) with HP-β-CD” value ([3]; pH 6.8)?
Answer: AP-type

Question: What about the “stability constant K1:1 with HP-β-CD” value ([3]; pH 6.8) of the same compound?
Answer: 6619 M^–1

Question: What about the “disruption on exposure to UV light” value ([4]; solution containing β-CD) of the same compound?
Answer: 31.90%

Question: And the “disruption on exposure to UV light” value ([4]; solution without β-CD)?
Answer: 40.95%

Question: And the “change in absorption peaks under solar light” value ([5]; presence of β-CD)?
Answer: significant changes in absorption peaks

Question: What about the “effect of equimolar and 4 mM β-CD on photodegradation velocity / first-order rate” value ([6]; UVA1 365 nm, 25 μM) of the same compound?
Answer: decreased

Question: What about the “CUR saturation concentration in reported AN-type diagram” value [7] of the same compound?
Answer: ≤ 0.00012 mM

Question: What about the “stability constant K1:1 with β-CD” value ([7]; ref Chen et al. 83) of the same compound?
Answer: 198 M^–1

Question: And the “stability constant K1:1 with β-CD” value ([7]; ref Mashaqbef et al. 81)?
Answer: 487.3 M^–1

Question: And the “CUR solubility in reported phase-solubility diagram” value ([7]; speculated by the authors from the report)?
Answer: ≤ 16 µM

Question: And the “stability constant K1:1 with HP-β-CD” value ([8]; ref Celebioglu and Uyar 84)?
Answer: 3073 M^–1

Question: And the “stability constant K1:1 with HP-β-CD” value ([8]; ref Li et al. 85)?
Answer: 2941 M^–1

Question: And the “log P” value [9]?
Answer: 3.2

Question: And the “updated pKa (first value)” value [9]?
Answer: 7.56

Question: And the “updated pKa (second value)” value [9]?
Answer: 8.72

Question: What about the “updated pKa (third value)” value [9] of the same compound?
Answer: 10.17

Question: What about the “pKa (keto-enol)” value ([9]; first of three pKa values) of the same compound?
Answer: 7.8

Question: And the “pKa (first phenolic OH)” value ([9]; second of three pKa values)?
Answer: 8.5

Question: And the “pKa (second phenolic OH)” value ([9]; third of three pKa values)?
Answer: 9.0

Question: What about the “degradation under 425 nm light compared to 620 nm light” value [10] of the same compound?
Answer: 1.7 times faster

Question: Which pKa ([1]; from log D–pH curve fitting, read-out: acid dissociation constant, pKa) does the source give for COc1ccc(C(=O)c2ccccc2)c(O)c1 [OXB] here?
Answer: 7.97

Question: And the logP ([1]; neutral form, curve fitting, read-out: 1-octanol/water partition coefficient, log P)?
Answer: 2.99

Question: And the “stability constant K1:1 with β-CD” value [2, 13]?
Answer: 2019

Question: And the “stability constant K1:1 with HP-β-CD” value [3, 13]?
Answer: 366.8

Question: And the “phase-solubility diagram type (Higuchi and Connors) with HP-β-CD” value ([3]; pH 6.8)?
Answer: AL-type

Question: What about the “UVA1 photodegradation (spectral change)” value ([4]; absence of β-CD) of the same compound?
Answer: maintenance of the OXB spectrum for 2 days

Question: And the “UVA1 photodegradation (spectral change)” value ([4]; presence of β-CD)?
Answer: maintenance of the OXB spectrum for 2 days

Question: And the “stability under solar light compared to UVA1 irradiation” value ([5]; presence or absence of β-CD)?
Answer: more significant than that observed under UVA1 irradiation

Question: What about the “concentration change under UVA1 irradiation (290 nm absorbance)” value ([6]; up to 50 h) of the same compound?
Answer: marginally reduced

Question: What about the “log Kow” value ([9]; Chart 1) of the same compound?
Answer: 3.79

Question: And the “reported pKa” value [9]?
Answer: 7.6

Question: With CCCCC(CC)COC(=O)c1ccc(N(C)C)cc1 (stereo not shown) [Padimate-O, padimate O] as the compound, how does the “risk / toxicity property” value [11] read?
Answer: insignificant risks

Question: With CC(O)COC[C@H]1O[C@@H]2O[C@H]3[C@H](O)[C@@H](O)[C@@H](O[C@H]4[C@H](O)[C@@H](O)[C@@H](O[C@H]5[C@H](O)[C@@H](O)[C@@H](O[C@H]6[C@H](O)[C@@H](O)[C@@H](O[C@H]7[C@H](O)[C@@H](O)[C@@H](O[C@H]8[C@H](O)[C@@H](O)[C@@H](O[C@H]1[C@H](O)[C@H]2O)O[C@@H]8COCC(C)O)O[C@@H]7COCC(C)O)O[C@@H]6COCC(C)O)O[C@@H]5COCC(C)O)O[C@@H]4COCC(C)O)O[C@@H]3COCC(C)O (stereo partly drawn) [HP-β-CD, hydroxypropyl-β-cyclodextrin] as the compound, how does the aqueous solubility [9] read?
Answer: more than 400 mmol/L

Question: Which “risk / toxicity property” value [11] does the source give for O=S(=O)(O)c1ccc2[nH]c(-c3ccccc3)nc2c1 [Ensulizole, ensulizole] here?
Answer: With photo-oxidizing properties

Question: Which water solubility [11] does the source give for CCOCCOC(=O)C=Cc1ccc(OC)cc1 [Cinoxate, cinoxate] here?
Answer: high water solubility

Question: With CC1CC(OC(=O)c2ccccc2O)CC(C)(C)C1 (stereo not shown) [Homosalate, homosalate] as the compound, how does the “risk / toxicity property” value [11] read?
Answer: endocrine-disrupting

Question: For CCCCC(CC)COC(=O)C(C#N)=C(c1ccccc1)c1ccccc1 (stereo not shown) [Octocrylene (OCR), octocrylene], which biodegradability [11] is on record?
Answer: poorly biodegradable

Question: Which “risk / toxicity property” value [11] does the source give for CCCCC(CC)COC(=O)C=Cc1ccc(OC)cc1 (stereo not shown) [Octinoxate (OCX), octinoxate] here?
Answer: toxic risks for the marine ecosystem
